How the values were obtained:
A549/ATCC = assay: NCI60 single-dose SRB assay; type: cell-based, human; details: Non-Small Cell Lung Cancer, 10 μM
Method: (§1) Compounds 19 and 20 were supplied to National Cancer Institute (USA), for sulforhodamine B (SRB) assay and anticancer screening. Single-dose (10 µM) assay results for compounds 19 and 20 were provided as a mean of percent growth (% G) and growth inhibition (% GI) against 60 cell lines of nine types of cancers and are tabulated in Table 4. […] Both the compounds 19 and 20 were also found active on UO-31 renal cancer cell line with % GI of 21.18 and 29.95, respectively.
(§2) Compounds 19 and 20 were supplied to National Cancer Institute (Bethesda, Maryland, USA), for in vitro sulforhodamine B (SRB) assay, anticancer screening on 60 cell lines of cancers of leukemia, melanoma, and tumors of the kidney, brain, breast, lung, colon, ovary, and prostate, as per their standard protocol. One dose anticancer results (NCI, USA) of compounds 19 and 20 are provided in the Supplementary Materials.

MOLT-4 = assay: NCI60 single-dose SRB assay; type: cell-based, human; details: MOLT-4, Leukemia, 10 μM
Method: as §1, §2

NCI-H460 = assay: NCI60 single-dose SRB assay; type: cell-based, human; details: NCI-H460, Non-Small Cell Lung Cancer, 10 μM
Method: as §1, §2

SNB-19 = assay: NCI60 single-dose SRB assay; type: cell-based, human; details: SNB-19, CNS Cancer, 10 μM
Method: as §1, §2

SK-MEL-2 = assay: NCI60 single-dose SRB assay; type: cell-based, human; details: SK-MEL-2, Melanoma, 10 μM
Method: as §1, §2

NCI-H322M = assay: NCI60 single-dose SRB assay; type: cell-based, human; details: Non-Small Cell Lung Cancer, 10 μM
Method: as §1, §2

HL-60(TB) = assay: NCI60 single-dose SRB assay; type: cell-based, human; details: Leukemia, 10 μM
Method: as §1, §2

A498 = assay: NCI60 single-dose SRB assay; type: cell-based, human; details: A498, Renal Cancer, 10 μM
Method: as §1, §2

MDA-MB-231/ATCC = assay: NCI60 single-dose SRB assay; type: cell-based, human; details: Breast Cancer, 10 μM
Method: as §1, §2

HCT-116 = assay: NCI60 single-dose SRB assay; type: cell-based, human; details: HCT-116, Colon Cancer, 10 μM
Method: as §1, §2

NCI/ADR-RES = assay: NCI60 single-dose SRB assay; type: cell-based, human; details: Ovarian Cancer, 10 μM
Method: as §1, §2

MCF7 = assay: NCI60 single-dose SRB assay; type: cell-based, human; details: MCF7, Breast Cancer, 10 μM
Method: as §1, §2

U251 = assay: NCI60 single-dose SRB assay; type: cell-based, human; details: U251, CNS Cancer, 10 μM
Method: as §1, §2

SNB-75 = assay: NCI60 single-dose SRB assay; type: cell-based, human; details: SNB-75, CNS Cancer, 10 μM
Method: as §1, §2

NCI-H23 = assay: NCI60 single-dose SRB assay; type: cell-based, human; details: NCI-H23, Non-Small Cell Lung Cancer, 10 μM
Method: as §1, §2

HOP-62 = assay: NCI60 single-dose SRB assay; type: cell-based, human; details: HOP-62, Non-Small Cell Lung Cancer, 10 μM
Method: as §1, §2

OVCAR-8 = assay: NCI60 single-dose SRB assay; type: cell-based, human; details: OVCAR-8, Ovarian Cancer, 10 μM
Method: as §1, §2

PC-3 = assay: NCI60 single-dose SRB assay; type: cell-based, human; details: PC-3, Prostate Cancer, 10 μM
Method: as §1, §2

CAKI-1 = assay: NCI60 single-dose SRB assay; type: cell-based, human; details: CAKI-1, Renal Cancer, 10 μM
Method: as §1, §2

SK-MEL-5 = assay: NCI60 single-dose SRB assay; type: cell-based, human; details: SK-MEL-5, Melanoma, 10 μM
Method: as §1, §2

T-47D = assay: NCI60 single-dose SRB assay; type: cell-based, human; details: Breast Cancer, 10 μM
Method: as §1, §2

OVCAR-4 = assay: NCI60 single-dose SRB assay; type: cell-based, human; details: OVCAR-4, Ovarian Cancer, 10 μM
Method: as §1, §2

OVCAR-3 = assay: NCI60 single-dose SRB assay; type: cell-based, human; details: OVCAR-3, Ovarian Cancer, 10 μM
Method: as §1, §2

RPMI-8226 = assay: NCI60 single-dose SRB assay; type: cell-based, human; details: RPMI-8226, Leukemia, 10 μM
Method: as §1, §2

hFAAH = target: T1, hFAAH (Homo sapiens, UniProt O00519); assay: Human FAAH inhibition assay (Cayman's assay kit); details: IC50, mean ± SEM (n = 3)
T1 sequence (O00519 1-579): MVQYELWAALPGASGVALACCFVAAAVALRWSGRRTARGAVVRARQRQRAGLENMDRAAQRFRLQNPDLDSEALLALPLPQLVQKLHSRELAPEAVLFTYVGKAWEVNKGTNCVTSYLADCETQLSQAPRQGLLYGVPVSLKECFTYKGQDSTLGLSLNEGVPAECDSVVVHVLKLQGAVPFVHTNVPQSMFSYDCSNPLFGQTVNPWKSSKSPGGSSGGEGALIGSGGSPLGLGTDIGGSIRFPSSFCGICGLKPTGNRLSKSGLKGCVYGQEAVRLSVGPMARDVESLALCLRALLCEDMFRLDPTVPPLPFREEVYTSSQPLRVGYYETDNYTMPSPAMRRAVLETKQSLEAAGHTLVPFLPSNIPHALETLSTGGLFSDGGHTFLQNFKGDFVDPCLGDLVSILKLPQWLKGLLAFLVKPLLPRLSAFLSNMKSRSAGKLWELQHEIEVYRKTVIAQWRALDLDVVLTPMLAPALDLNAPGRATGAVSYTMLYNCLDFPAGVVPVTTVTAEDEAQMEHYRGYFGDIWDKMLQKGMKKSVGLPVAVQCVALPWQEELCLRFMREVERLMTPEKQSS

For `NS(=O)(=O)c1ccc(N2CC(c3nc4ccccc4o3)CC2=O)cc1` (centres unmarked) [Compound 20, 4-(4-(Benzo[d]oxazol-2-yl)-2-oxopyrrolidin-1-yl)benzenesulfonamide], the “% G” value (A549/ATCC) was 95.28%, the “% GI” value (A549/ATCC) was 4.72% and the “% G” value (MOLT-4) was 92.47%. For the same compound, the “% GI” value (MOLT-4) was 7.53%, the “% G” value (NCI-H460) was 104.20% and the “% GI” value (NCI-H460) was −4.20%. For the same compound, the “% G” value (SNB-19) was 97.02%, the “% GI” value (SNB-19) was 2.98% and the “% G” value (SK-MEL-2) was 111.54%. For the same compound, the “% GI” value (SK-MEL-2) was −11.54%, the “% G” value (NCI-H322M) was 99.10% and the “% GI” value (NCI-H322M) was 0.90%. For the same compound, the “% G” value (HL-60(TB)) was 96.15%, the “% GI” value (HL-60(TB)) was 3.85% and the “% G” value (A498) was 113.94%. For the same compound, the “% GI” value (A498) was −13.94%, the “% G” value (MDA-MB-231/ATCC) was 80.11% and the “% GI” value (MDA-MB-231/ATCC) was 19.89%. The “% G” value (HCT-116) was 95.78%, the “% G” value (NCI/ADR-RES) was 101.45% and the “% GI” value (NCI/ADR-RES) was −1.45%. For the same compound, the “% G” value (MCF7) was 92.32%, the “% GI” value (MCF7) was 7.68% and the “% G” value (U251) was 95.21%. The “% GI” value (U251) was 4.79%, the “% G” value (SNB-75) was 68.12% and the “% GI” value (SNB-75) was 31.88%. For the same compound, the “% G” value (NCI-H23) was 92.19%, the “% GI” value (NCI-H23) was 7.81% and the “% G” value (HOP-62) was 81.97%. The “% GI” value (HOP-62) was 18.03%, the “% G” value (OVCAR-8) was 97.49% and the “% GI” value (OVCAR-8) was 2.51%. The “% G” value (PC-3) was 88.11%, the “% GI” value (PC-3) was 11.89% and the “% G” value (CAKI-1) was 92.35%. For the same compound, the “% GI” value (CAKI-1) was 7.65%, the “% G” value (SK-MEL-5) was 98.82% and the “% G” value (T-47D) was 83.24%. The “% G” value (OVCAR-4) was 99.47%, the “% GI” value (OVCAR-4) was 0.53% and the “% G” value (OVCAR-3) was 98.53%. For the same compound, the “% GI” value (OVCAR-3) was 1.47%, the “% G” value (RPMI-8226) was 103.53% and the “% GI” value (RPMI-8226) was −3.53%. It also gave an IC50 (hFAAH) of 68 ± 2.1 µM.
For `O=C1CC(c2nc3ccccc3o2)CN1c1ccc([N+](=O)[O-])cc1` (centres unmarked) [Compound 19, 4-(Benzo[d]oxazol-2-yl)-1-(4-nitrophenyl)pyrrolidin-2-one], the “% G” value (A549/ATCC) was 100.60%, the “% GI” value (A549/ATCC) was −0.60% and the “% G” value (MOLT-4) was 93.64%. The “% GI” value (MOLT-4) was 6.36%, the “% G” value (NCI-H460) was 102.33% and the “% GI” value (NCI-H460) was −2.33%. For the same compound, the “% G” value (SNB-19) was 99.29%, the “% GI” value (SNB-19) was 0.71% and the “% G” value (SK-MEL-2) was 102.31%. For the same compound, the “% GI” value (SK-MEL-2) was −2.31%, the “% G” value (NCI-H322M) was 94.18% and the “% GI” value (NCI-H322M) was 5.82%. The “% G” value (HL-60(TB)) was 100.09%, the “% GI” value (HL-60(TB)) was −0.09% and the “% G” value (A498) was 113.46%. For the same compound, the “% GI” value (A498) was −13.46%, the “% G” value (MDA-MB-231/ATCC) was 88.41% and the “% GI” value (MDA-MB-231/ATCC) was 11.59%. The “% G” value (HCT-116) was 102.14%, the “% GI” value (HCT-116) was −2.14% and the “% G” value (NCI/ADR-RES) was 98.37%. The “% GI” value (NCI/ADR-RES) was 1.63%, the “% G” value (MCF7) was 99.19% and the “% GI” value (MCF7) was 0.81%. The “% G” value (U251) was 100.97%, the “% GI” value (U251) was −0.97% and the “% G” value (SNB-75) was 64.51%. The “% GI” value (SNB-75) was 35.49%, the “% G” value (NCI-H23) was 93.07% and the “% GI” value (NCI-H23) was 6.93%. For the same compound, the “% G” value (HOP-62) was 85.04%, the “% GI” value (HOP-62) was 14.96% and the “% G” value (OVCAR-8) was 101.95%. For the same compound, the “% GI” value (OVCAR-8) was −1.95%, the “% G” value (PC-3) was 91.14% and the “% GI” value (PC-3) was 8.86%. For the same compound, the “% G” value (CAKI-1) was 97.19%, the “% GI” value (CAKI-1) was 2.81% and the “% G” value (SK-MEL-5) was 98.72%. The “% GI” value (SK-MEL-5) was 1.28%, the “% G” value (T-47D) was 80.01% and the “% GI” value (T-47D) was 19.99%. The “% G” value (OVCAR-4) was 106.27%, the “% GI” value (OVCAR-4) was −6.27% and the “% G” value (OVCAR-3) was 98.56%. For the same compound, the “% GI” value (OVCAR-3) was 1.44%, the “% G” value (RPMI-8226) was 101.28% and the “% GI” value (RPMI-8226) was −1.28%. The IC50 (hFAAH) was 55 ± 2.7 µM.

— article PMC8074287, “Analgesic and Anticancer Activity of Benzoxazole Clubbed 2-Pyrrolidinones as Novel Inhibitors of Monoacylglycerol Lipase” (Molecules, 2021)
